Test results: patent publication US20120283293A1, “Methods of neuroprotection involving Prostaglandin E2 EP4 (PGE2 EP4) receptor activation” (The Board of Trustees of the Leland Stanford Junior …, priority 2011, published 2012)

Experiments:
[1] = test system: PKA activity in BV-2 cells; test: cAMP dependent protein kinase A (PKA) activity assay in BV-2 cells; assay type: cell-based, murine; conditions: AE1-329 100 nM alone or with LPS 100 ng/ml
Procedure: PKA activity was determined using the PKA kinase activity assay kit (Assay designs, Ann Arbor, Mich.). Cells were harvested 3 minutes after stimulation, and ELISA was carried out according to the manufacturer's instructions. Kinase activity was calculated as (sample absorbance—blank absorbance)/μg protein and normalized to the average value of vehicle.
Downstream signaling events for EP4, a […] receptor, were investigated in LPS treated BV-2 cells (see FIG. 3). […] The increase in PKA activity from EP4 receptor signaling was blocked with the PKA inhibitor H89 at doses of 5 μM and 10 μM (FIG. 3B).

[2] = test system: plasma cytokine and chemokine levels; test: plasma multi-analyte analysis in LPS-stimulated mice; assay type: in vivo, mouse; conditions: LPS 5 mg/kg i.p., AE1-329 300 μg/kg s.c.
Procedure: The murine in vivo studies were conducted in accordance with the National Institutes of Health guidelines for the use of experimental animals and protocols were approved by the Institutional Animal Care and Use Committee. C57B6 EP4 floxed mice (Schneider et al., 2004) were kindly provided by Drs. Richard and Matthew Breyer (Vanderbilt University School of Medicine, Nashville, Tenn.), and C57B6 Cd11bCre mice (Boillee et al., 2006) were kindly provided by Dr. G. Kollias (Alexander Fleming Biomedical Sciences Research Center, Vari, Greece) and Dr. Donald Cleveland (UCSD, San Diego, Calif.). All mice were housed in an environment controlled for lighting (12 hour light/dark cycle), temperature, and humidity, with food and water available ad libitum. Cd11bCre:EP4f/f and Cd11bCre:EP4+/+ mice were generated by serial crosses of C57B6 Cd11bCre and EP4f/f and EP4+/+ lines. Male Cd11bCre: EP4f/f and Cd11bCre: EP4+/+ mice were treated with either saline or LPS (5 mg/kg intraperitoneally: n=5-8 per group, 13 months of age). 24 hours after injection, mice were euthanized and brain tissue was harvested and frozen at −80° C. For pharmacological experiments, C57B6 male mice (Jackson Laboratories, Bar Harbor, Me.; n=7 or 8 per group) received an injection of saline or LPS (5 mg/kg, i.p.+/−vehicle or AE1-329 ([…]) (Qin et al., 2007; Nagamatsu et al., 2006). Mice were euthanized 6 hours later, and brain tissue was harvested and frozen at −80° C. For collection of plasma, C57B6 male mice (n=5 per group) received an injection of saline or LPS (5 mg/kg, i.p.)+/−AE1-329 ([…].) or vehicle. […] Plasma was collected after centrifugation at 1000×g for 10 min at 4° C. and frozen at −80° C.
Plasma was analyzed using the Rodent MAP™ Antigens, Version 2.0 multi-analyte profile (Rules Based Medicine, Austin, Tex.) that screens a total of 59 blood secreted proteins using multiplex fluorescent immunoassay.
Data are presented as mean±standard error of the mean and analyzed using analysis of variance or Student's t test. Prism software (GraphPad Software, Inc. San Diego, Calif.) was used for statistical analyses. Data for Griess assays and quantitative Western analyses were analyzed using one-way or two-way ANOVA, followed by Newman-Keuls multiple comparison or Bonferroni posttest analysis, respectively. For plasma multi-analyte analysis, the concentrations of the 15 plasma proteins that reached statistical significance between LPS+vehicle versus LPS+AE1-329 cohorts were transformed to relative concentrations (Median Z-score). Cluster analysis (Gene Cluster3.0, University of Tokyo, Tokyo and Java TreeView 1.0.13, Alok Saldanda, Calif.) produced a separation of samples according to treatment group and protein levels in plasma. […]

Question: For `COCc1ccccc1CC[C@H](O)/C=C/[C@H]1[C@H](O)CC(=O)[C@@H]1SCCCSCC(=O)O` [AE1-329], which PKA activity [1] is on record?
Answer: significantly increased

Question: And the “plasma levels of IL-10” value ([2]; 3 hours)?
Answer: significantly increased plasma levels

Question: What about the “plasma levels of TNF-α, IL-1α, eotaxin, MDC, MIP-1α, MIP-1β, MIP-1γ, MIP-2, MCP-1, MCP-3 and MCP-5” value ([2]; 3 hours) of the same compound?
Answer: significantly decreased levels

Question: What about the plasma myeloperoxidase ([2]; 3 hours) of the same compound?
Answer: reduced secreted levels

Question: And the “plasma levels of IL-6 and LIF” value ([2]; printed 'at 6 h')?
Answer: trend towards decreased levels
